Test results published in US20240343740A1, “MACROCYCLIC GLUCAGON-LIKE PEPTIDE 1 RECEPTOR AGONISTS” (Eli Lilly and Company, priority 2021, published 2024).
Where a name gives a salt, the structure may show the parent alone.

What was measured:
human GLP-1R [1] = target: T1, human GLP-1R (Homo sapiens, UniProt P43220); assay: Human GLP-1 Receptor HEK293 cell cAMP assay, 104 fmol/mg GLP-1R expression density; format: cell-based; set-up: expressed in transfected cells; host or cells: HEK293 clonal cell line; conditions: HEK293 cell line with 104 fmol/mg expression density of GLP-1R; for EC50: geometric mean, read-out: EC50 nM (SEM, n), intracellular cAMP response, relative EC50; for Emax: percent of maximal response to GLP-1(7-36)NH2, arithmetic mean, read-out: Emax % (SEM, n), intracellular cAMP response
T1 sequence (P43220 24-463): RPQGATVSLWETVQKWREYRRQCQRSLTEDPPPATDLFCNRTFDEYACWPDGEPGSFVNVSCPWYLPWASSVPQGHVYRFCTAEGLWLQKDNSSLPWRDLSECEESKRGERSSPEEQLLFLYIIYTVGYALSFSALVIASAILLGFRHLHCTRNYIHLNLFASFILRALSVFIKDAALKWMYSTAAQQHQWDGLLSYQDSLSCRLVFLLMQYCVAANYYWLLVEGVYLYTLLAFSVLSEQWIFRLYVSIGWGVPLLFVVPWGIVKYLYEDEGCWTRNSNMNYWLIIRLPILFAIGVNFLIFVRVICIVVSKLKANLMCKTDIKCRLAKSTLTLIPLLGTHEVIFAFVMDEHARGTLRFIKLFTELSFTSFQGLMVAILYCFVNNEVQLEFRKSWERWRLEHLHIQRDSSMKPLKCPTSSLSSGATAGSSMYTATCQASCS
Protocol: (§1) Human GLP-1 Receptor HEK293 Cell cAMP Assay
(§2) GLP-1 Receptor functional activity is determined using cAMP formation in an HEK293 clonal cell line expressing human GLP-1R (NCBI accession number NP_002053) at an expression density of 581±94 (n=6) and 104±12 (n=5) fmol/mg protein (determined using [^125I]GLP-1(7-36)NH2 homologous competition binding analysis). The hGLP-1R receptor expressing cells are treated with compound (20 point concentration-response curve in DMSO, 2.75-fold Labcyte Echo direct dilution, 384 well plate Corning Cat #3570) in DMEM (Gibco Cat #31053) supplemented with 1× GlutaMAX™ (Gibco Cat #35050), 0.1% bovine casein (Sigma C4765-10ML), 250 μM IBMX (3-Isobutyl-1-methylxanthine, Acros Cat #228420010) and 20 mM HEPES (Gibco Cat #15630) in a 20 μL assay volume (final DMSO concentration is 0.5%). After a 30 min incubation at 37° C., the resulting increase in intracellular cAMP is quantitatively determined using the CisBio cAMP Dynamic 2 HTRF Assay Kit (62AM4PEJ). Briefly, cAMP levels within the cell are detected by adding the cAMP-d2 conjugate in cell lysis buffer (10 μL) followed by the antibody anti-cAMP-Eu^3+-Cryptate, also in cell lysis buffer (10 μL). The resulting competitive assay is incubated for at least 60 min at RT, then detected using a PerkinElmer Envision® instrument with excitation at 320 nm and emission at 665 nm and 620 nm. Envision units (emission at 665 nm/620 nm*10,000) are inversely proportional to the amount of cAMP present and are converted to nM cAMP per well using a cAMP standard curve. The amount of cAMP generated (nM) in each well is converted to a percent of the maximal response observed with human GLP-1(7-36)NH2. A relative EC50 value and percent top (Emax) are derived by non-linear regression analysis using the percent maximal response vs. the concentration of compound added, fitted to a four-parameter logistic equation.

human GLP-1R [2] = target: T1, human GLP-1R; assay: Human GLP-1 Receptor HEK293 cell cAMP assay, 581 fmol/mg GLP-1R expression density; format: cell-based; set-up: expressed in transfected cells; host or cells: HEK293 clonal cell line; conditions: HEK293 cell line with 581 fmol/mg expression density of GLP-1R; for EC50: geometric mean, read-out: EC50 nM (SEM, n), intracellular cAMP response, relative EC50; for Emax: percent of maximal response to GLP-1(7-36)NH2, arithmetic mean, read-out: Emax % (SEM, n), intracellular cAMP response
Protocol: as §1, §2

Row | Structure (SMILES) | EC50 (human GLP-1R [1]) [nM] | Emax (human GLP-1R [1]) [%] | EC50 (human GLP-1R [2]) [nM] | Emax (human GLP-1R [2]) [%]
1 | COCCOc1cc(C(=O)O)cc2c1nc(Cc1cc(F)c3cc1CCOCc1cc(ccc1Cl)COc1cccc-3n1)n2C[C@@H]1CCO1 [Example 47, (S)-2-((5^4-Chloro-1^6-fluoro-3,7-dioxa-2(2,6)-pyridina-1,5(1,3)-dibenzenacyclononaphane-1^4-yl)methyl)-4-(2-methoxyethoxy)-1-(oxetan-2-ylmethyl)-1H-benzo[d]imidazole-6-carboxylic acid] | 116 | 108 | 25.1 | 110
2 | COCCOc1cc(C(=O)O)cc2c1nc(Cc1cc(F)c3cc1COCc1cc(C#N)ccc1COc1cccc-3n1)n2C[C@@H]1CCO1 [Example 68, (S)-2-((5^4-Cyano-1^6-fluoro-3,7-dioxa-2(2,6)-pyridina-1(1,3),5(1,2)-dibenzenacyclooctaphane-1^4-yl)methyl)-4-(2-methoxyethoxy)-1-(oxetan-2-ylmethyl)-1H-benzo[d]imidazole-6-carboxylic acid] | 8.72 | 98.5 | 6.82 | 115
3 | O=C(O)c1ccc2nc(Cc3ccc4cc3OCCCc3cc(-n5cnc(F)c5)ccc3COc3cccc-4n3)n(C[C@@H]3CCO3)c2c1 [Example 66, (S)-2-((5^4-(4-Fluoro-1H-imidazol-1-yl)-3,9-dioxa-2(2,6)-pyridina-1(1,3),5(1,2)-dibenzenacyclononaphane-1^4-yl)methyl)-1-(oxetan-2-ylmethyl)-1H-benzo[d]imidazole-6-carboxylic acid] | 54.5 | 82.5 | 13.4 | 118
4 | N#Cc1ccc2c(c1)CCOCc1cc(ccc1Cc1nc3c(F)cc(C(=O)O)cc3n1C[C@@H]1CCO1)-c1cccc(n1)OC2 [Example 61, (S)-2-((5^4-cyano-3,8-dioxa-2(2,6)-pyridina-1(1,3),5(1,2)-dibenzenacyclononaphane-1^4-yl)methyl)-4-fluoro-1-(oxetan-2-ylmethyl)-1H-benzo[d]imidazole-6-carboxylic acid] | 79.1 | 93.2 | 18.1 | 110
5 | N#Cc1ccc2c(c1)CCCOc1cc(ccc1Cc1nc3c(F)cc(C(=O)O)cc3n1C[C@@H]1CCO1)-c1cccc(n1)OC2 [Example 7, (S)-2-((5^4-cyano-3,9-dioxa-2(2,6)-pyridina-1(1,3),5(1,2)-dibenzenacyclononaphane-1^4-yl)methyl)-4-fluoro-1-(oxetan-2-ylmethyl)-1H-benzo[d]imidazole-6-carboxylic acid] | 96.8 | 92.9 | 20.1 | 104
6 | O=C(O)c1ccc2nc(Cc3ccc4cc3OCCCc3cc(-c5cccnc5)ccc3COc3cccc-4n3)n(C[C@@H]3CCO3)c2c1 [Example 37, (S)-1-(Oxetan-2-ylmethyl)-2-((5^4-(pyridin-3-yl)-3,9-dioxa-2(2,6)-pyridina-1(1,3),5(1,2)-dibenzenacyclononaphane-1^4-yl)methyl)-1H-benzo[d]imidazole-6-carboxylic acid] | 506 | 79.7 | 179 | 103
7 | O=C(O)c1ccc2nc(Cc3ccc4cc3OCCCc3cc(-n5ccc(=O)c(F)c5)ccc3COc3cccc-4n3)n(C[C@@H]3CCO3)c2c1 [Example 71, (S)-2-((5^4-(3-Fluoro-4-oxopyridin-1(4H)-yl)-3,9-dioxa-2(2,6)-pyridina-1(1,3),5(1,2)-dibenzenacyclononaphane-1^4-yl)methyl)-1-(oxetan-2-ylmethyl)-1H-benzo[d]imidazole-6-carboxylic acid] | 598 | 52.1 | 138 | 68.4
8 | Cc1cn(-c2ccc3c(c2)CCCOc2cc(ccc2Cc2nc4ccc(C(=O)O)cc4n2C[C@@H]2CCO2)-c2cccc(n2)OC3)cn1 [Example 72, (S)-2-((5^4-(4-Methyl-1H-imidazol-1-yl)-3,9-dioxa-2(2,6)-pyridina-1(1,3),5(1,2)-dibenzenacyclononaphane-1^4-yl)methyl)-1-(oxetan-2-ylmethyl)-1H-benzo[d]imidazole-6-carboxylic acid] | 348 | 90.4 | 92.5 | 106
9 | COc1cc(C(=O)O)cc2c1nc(Cc1cc(C)c3cc1OCCCc1cc(C(F)(F)F)ccc1COc1cccc-3n1)n2C[C@@H]1CCO1 [Example 16, (S)-4-Methoxy-2-((1^6-methyl-5^4-(trifluoromethyl)-3,9-dioxa-2(2,6)-pyridina-1(1,3),5(1,2)-dibenzenacyclononaphane-1^4-yl)methyl)-1-(oxetan-2-ylmethyl)-1H-benzo[d]imidazole-6-carboxylic acid] | 4.02 | 86.7 | 1.95 | 125
10 | N#Cc1ccc2c(c1)CCCOc1cc(ccc1Cc1nc3ccc(-c4nnn[nH]4)cc3n1C[C@@H]1CCO1)-c1cccc(n1)OC2 [Example 41, (S)-1^4-((1-(Oxetan-2-ylmethyl)-6-(1H-tetrazol-5-yl)-1H-benzo[d]imidazol-2-yl)methyl)-3,9-dioxa-2(2,6)-pyridina-1(1,3),5(1,2)-dibenzenacyclononaphane-5^4-carbonitrile] | 713 | 60.3 | 184 | 89.1
11 | COc1cc(C(=O)O)cc2c1nc(Cc1cc(F)c3cc1OCCCc1cc(C#N)cnc1COc1cccc-3n1)n2C[C@@H]1CCO1 [Example 43, (S)-2-((5^5-Cyano-1^6-fluoro-3,9-dioxa-2(2,6),5(2,3)-dipyridina-1(1,3)-benzenacyclononaphane-1^4-yl)methyl)-4-methoxy-1-(oxetan-2-ylmethyl)-1H-benzo[d]imidazole-6-carboxylic acid diformate salt] | 194 | 72 | 48.6 | 86.9
12 | COc1cc(C(=O)O)cc2c1nc(Cc1ccc3cc1OCCCc1cc(C#N)ccc1COc1cccc-3n1)n2C[C@@H]1CCO1 [Example 5, (S)-2-((5^4-Cyano-3,9-dioxa-2(2,6)-pyridina-1(1,3),5(1,2)-dibenzenacyclononaphane-1^4-yl)methyl)-4-methoxy-1-(oxetan-2-ylmethyl)-1H-benzo[d]imidazole-6-carboxylic acid] | 22.3 | 81.6 | 6.58 | 109
13 | O=C(O)c1ccc2nc(Cc3ccc4cc3OCCCc3cc(-n5ccc(=O)cc5)ccc3COc3cccc-4n3)n(C[C@@H]3CCO3)c2c1 [Example 74, (S)-1-(Oxetan-2-ylmethyl)-2-((5^4-(4-oxopyridin-1(4H)-yl)-3,9-dioxa-2(2,6)-pyridina-1(1,3),5(1,2)-dibenzenacyclononaphane-1^4-yl)methyl)-1H-benzo[d]imidazole-6-carboxylic acid] | 533 | 73.3 | 155 | 92.1
14 | N#Cc1ccc2c(c1)CCCOc1cc(ccc1Cc1nc3ccc(C(=O)O)nc3n1C[C@@H]1CCO1)-c1cccc(n1)OC2 [Example 6, (S)-2-((5^4-Cyano-3,9-dioxa-2(2,6)-pyridina-1(1,3),5(1,2)-dibenzenacyclononaphane-1^4-yl)methyl)-3-(oxetan-2-ylmethyl)-3H-imidazo[4,5-b]pyridine-5-carboxylic acid] | 1020 | 89.1 | 166 | 97.2
15 | COc1cc(-c2ccc3c(c2)CCCOc2cc(ccc2Cc2nc4ccc(C(=O)O)cc4n2C[C@@H]2CCO2)-c2cccc(n2)OC3)ccn1 [Example 34, (S)-2-((5^4-(2-Methoxypyridin-4-yl)-3,9-dioxa-2(2,6)-pyridina-1(1,3),5(1,2)-dibenzenacyclononaphane-1^4-yl)methyl)-1-(oxetan-2-ylmethyl)-1H-benzo[d]imidazole-6-carboxylic acid] | 616 | 82.3 | 167 | 110
